Experiments:
powdery mildew = assay: Test Example 5: control test of wheat powdery mildew, field, wheat variety Haruyutaka; format: in vivo, Blumeria graminis; details: for Degree of Disease Occurrence / Disease Leaf Rate (%): leaves just below flag leaves, 85 days after seeding
Procedure: (§1) Degree of Disease Occurrence=Σ(Index×Number of Leaves of Index)/(4×Number of Investigated Leaves)×100 (1)
Seed of wheat (variety: Haruyutaka) sterilized in advance with commercial Benlate T wettable powder 20 (“Benlate” is a registered trademark) was used. In Examples 12, 13, and 14, seed having a mass of 1 kg was mixed into 50 ml of suspension water containing 2.5 g or 1.25 g of dichlobentiazox or 50 ml of suspension water containing 2.5 g of isotianil, air-dried, and then, stripe-sown in a field with a furrow width of 30 cm and a ratio of 100 kg/ha (300 seeds/m^2). Moreover, in Comparative Example 14, seed having a mass of 1 kg was mixed into 50 ml of suspension water containing 2.5 g of tiadinil (commercial V-GET flowable was used, “V-GET” is a registered trademark), air-dried, and then, stripe-sown in a field with a furrow width of 30 cm and a ratio of 100 kg/ha (300 seeds/m^2). The presence or absence of disease occurrence and a lesion area ratio of powdery mildew in leaves just below hag leaves (next leaves) of 30 stems were investigated 85 days after seeding by according to the criteria in Table 1, and a disease leaf rate and the degree of disease occurrence were calculated by the above calculation formula(1).

septoria leaf blotch = assay: Test Example 7: control test of septoria leaf blotch of wheat, field, wheat variety TRAPEZ; format: in vivo, Septoria tritici; details: for Degree of Disease Occurrence: flag leaves, 219 days after seeding
Procedure: as §1
Seed of wheat (variety: TRAPEZ) was used. On seed having a mass of 1 kg, 20 ml of suspension water containing 0.5 g or 5 g of dichlobentiazox or isotianil was sprayed. In Examples 16, 17, and 18, the seed treated with the chemical was stripe-sown with a ratio of 100 kg/ha. In contrast, in Comparative Example 17, seed which had not treated with dichlobentiazox or isotianil was sown in a field in the same manner, and a spray solution corresponding to that obtained by suspending 750 g of chlomthalonil (commercial FUNGISTOP was used, “FUNGISTOP” is a registered trademark) in 200 liters of water per 1 ha was sprayed on foliage of wheat 154 days and 184 days after seeding. The severity of disease occurrence of septoria leaf blotch in flag leaves of 25 stems was investigated 219 days after seeding according to the criteria in Table 1, and the degree of disease occurrence was calculated by the above calculation formula (1).

[1] = Seed Treatment 1.25 g/Seed 1 kg (printed: 250 g/ha)
[2] = Seed Treatment 2.5 g/Seed 1 kg (250 g/ha)

## O=S1(=O)N=C(OCc2snc(Cl)c2Cl)c2ccccc21 [Compound (1), Dichlobentiazox]
Powdery mildew; [1]
  Degree of Disease Occurrence: 0.8
  Disease Leaf Rate (%): 4.4%
Powdery mildew; [2]
  Degree of Disease Occurrence: 0.4
  Disease Leaf Rate (%): 2.2%
Powdery mildew; seed treatment
  disease occurrence of powdery mildew, seed treatment compared with seed treatment with tiadinil: suppresses the disease occurrence of powdery mildew lower
Septoria leaf blotch; Seed Treatment 0.5 g/Seed 1 kg (50 g/ha)
  Degree of Disease Occurrence: 2.8
Septoria leaf blotch; Seed Treatment 5 g/Seed 1 kg (500 g/ha)
  Degree of Disease Occurrence: 1.9
Septoria leaf blotch; seed treatment
  disease occurrence of septoria leaf blotch, seed treatment compared with foliage spraying of chlorothalonil: more suppressed

From patent US20220000117A1, “METHOD FOR CONTROLLING DISEASES IN SMALL GRAIN CEREALS, SEED OF SMALL GRAIN CEREALS, AND METHOD FOR SUPPRESSING LODGING DAMAGE IN SMALL GRAIN CEREALS” (KUMIAI CHEMICAL INDUSTRY CO., LTD., priority 2019, published 2022)
